pIC50: −log10 of the molar value.

The target of the first experiment is HDM2 (truncated, residues 17 to 125, containing p53 binding surface) (Homo sapiens (Human), UniProt Q00987). The experiment is described as follows: HDM2 FRET assay (inhibition of binding of FITC labeled p53-site peptide to HDM2). The following applies: Table 16. An excerpt: IC50 DETERMINATIONS: Dose-response curves were plotted from the inhibition data, from 10 point serial dilutions of inhibitory compounds. Concentration of compound was plotted against em520/Cem495 ratio signal. To generate IC50 values, the dose-response curves were fitted to a standard sigmoidal curve and IC50 values were derived by nonlinear regression analysis.
Chain of HDM2 (truncated, residues 17 to 125, containing p53 binding surface) (Q00987 17-125): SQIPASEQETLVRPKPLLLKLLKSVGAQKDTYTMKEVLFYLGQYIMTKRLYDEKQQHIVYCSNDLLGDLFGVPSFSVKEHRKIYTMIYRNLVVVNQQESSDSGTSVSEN
For orientation: pIC50 means −log10 of the IC50, conventionally taken in molar units. A lower pIC50 goes with a high IC50. `Cc1ncc(Cl)cc1-c1nc(-c2noc(=O)[nH]2)nc2nc(N3CCO[C@@H]4CCC[C@H]43)n(C[C@H]3CC[C@H](C)CC3)c12` (racemic) [Example 16.164, 3-{6-(5-chloro-2-methylpyridin-3-yl)-8-[(trans)-hexahydrocyclopenta [b][1,4]oxazin-4(4aH)-yl]-7-[(trans-4-methylcyclohexyl)methyl]-7H-purin-2-yl}-1,2,4-oxadiazol-5(4H)-one] had a pIC50 of 8.68. Consider `C[C@H]1CC[C@H](Cn2c(N3CCCC4COCCC43)nc3nc(-c4n[nH]c(=O)o4)nc(-c4cccc(Cl)c4)c32)CC1` (single isomer, unassigned) [Example 16.124, 5-{6-(3-chlorophenyl)-8-(hexahydro-2H-pyrano[4,3-b]pyridin-1(5H)-yl)-7-[(trans-4-methylcyclohexyl)methyl]-7H-purin-2-yl}-1,3,4-oxadiazol-2(3H)-one], for which the pIC50 is 6.58. Consider `COC(C)(C)C1CCCN1c1nc2nc(-c3n[nH]c(=O)o3)nc(-c3cccc(Cl)c3)c2n1C[C@H]1CC[C@H](C)CC1` (single isomer, unassigned) [Example 16.71, 5-{6-(3-chlorophenyl)-8-[2-(1-methoxy-1-methylethyl)pyrrolidin-1-yl]-7-[(trans-4-methylcyclohexyl)methyl]-7H-purin-2-yl}-1,3,4-oxadiazol-2(3H)-one], for which the pIC50 is 8.61.

Still in this experiment, the particulars now being: Table 18.
In turn, `CC([C@H]1CC[C@H](C)CC1)n1c(N2CCOC3CCCC32)nc2nc(-c3n[nH]c(=O)o3)nc(-c3cccc(Cl)c3)c21` (single isomer, unassigned) [Example 18.39, 5-{6-(3-chlorophenyl)-8-(hexahydrocyclopenta[b][1,4]oxazin-4(4aH)-yl)-7-[1-(trans-4-methylcyclohexyl)ethyl]-7H-purin-2-yl}-1,3,4-oxadiazol-2(3H)-one] showed a pIC50 of 8.43.

The same experiment, now with this note: Table 23.
As for `C[C@H]1CC[C@H](Cn2c(C(F)C3CCCCC3)nc3nc(-c4noc(=O)[nH]4)nc(-c4cccc(Cl)c4)c32)CC1` (mixture of isomers) [Example 23.29, 3-{6-(3-chlorophenyl)-8-[cyclohexyl(fluoro)methyl]-7-[(trans-4-methylcyclohexyl)methyl]-7H-purin-2-yl}-1,2,4-oxadiazol-5(4H)-one], the pIC50 was 7.46. With `CC(F)(c1ccccn1)c1nc2nc(-c3noc(=O)[nH]3)nc(-c3cccc(Cl)c3)c2n1C[C@H]1CC[C@H](C)CC1` (single isomer, unassigned) [Example 23.31, 3-{6-(3-chlorophenyl)-8-(1-fluoro-1-pyridin-2-ylethyl)-7-[(trans-4-methylcyclohexyl)methyl]-7H-purin-2-yl}-1,2,4-oxadiazol-5(4H)-one], the pIC50 is 8.43. `COC(c1nc2nc(-c3n[nH]c(=O)o3)nc(-c3cccc(Cl)c3)c2n1C[C@H]1CC[C@H](C)CC1)C1CCCCC1` (mixture of isomers) [Example 23.15, 5-{6-(3-chlorophenyl)-8-[cyclohexyl(methoxy)methyl]-7-[(trans-4-methylcyclohexyl)methyl]-7H-purin-2-yl}-1,3,4-oxadiazol-2(3H)-one] had a pIC50 of 7.64.

Compound `COC(C)(c1ncccc1F)c1nc2nc(-c3n[nH]c(=O)o3)nc(-c3cncc(Cl)c3)c2n1C[C@H]1CC[C@H](C)CC1` (single isomer, unassigned) [Example 23.87, 5-{6-(5-chloropyridin-3-yl)-8-[1-(3-fluoropyridin-2-yl)-1-methoxyethyl]-7-[(trans-4-methylcyclohexyl)methyl]-7H-purin-2-yl}-1,3,4-oxadiazol-2(3H)-one] showed a negative logarithm of the IC50 (pIC50) of 7.71. On the same count and under the same terms, to `COC(C)(c1ncccc1F)c1nc2nc(-c3n[nH]c(=O)o3)nc(-c3cncc(Cl)c3)c2n1C[C@H]1CC[C@H](C)CC1` (single isomer, unassigned) [Example 23.86, 5-{6-(5-chloropyridin-3-yl)-8-[1-(3-fluoropyridin-2-yl)-1-methoxyethyl]-7-[(trans-4-methylcyclohexyl)methyl]-7H-purin-2-yl}-1,3,4-oxadiazol-2(3H)-one] belongs 9.17.

(Values after patent publication US9540377B2, “2,6,7,8 substituted purines as HDM2 inhibitors” (Merck Sharp & Dohme Corp., priority 2013, dated 2017).)
